Results on two compounds are retold here after US9283277B2, “Methods and compositions for the treatment of obesity” (Children's Medical Center Corporation, priority 2008, dated 2016).

Experiment [1] concerns ob/ob mice. The experiment can be described thus: TUDCA pretreatment and leptin in ob/ob mice (bodyweight, metabolic cage, DEXA). The class given is in vivo. On the procedure: (a) Hypothalamic PERK phosphorylation (Thr980) after 21 days of vehicle or TUDCA (150 mg/kg/day) treatment. Following a five-day pretreatment with TUDCA (150 mg/kg/day) or vehicle, nine-ten week old ob/ob mice were treated either with leptin (1 mg/kg/day) or vehicle. (b) Body weight (g), (c) % decrease in body weight, (d) daily food intake of the ob/ob mice during 18 days of treatment period with the indicated regimens. (e) Blood glucose (mg/dl) levels at the 18th day of treatment. Metabolic cage studies were performed; (f) CO2 production (ml/kg/hr), (g) O2 consumption (ml/kg/hr), (h) Respiratory exchange ratio (VCO2/VO2), (i) X-axis ambulatory activity, (j) Heat generation (kcal/hr). Dexa scan analysis of (k) total fat amount (g), (l) fat % and (m) lean body mass (g). C57BL/6 male wt mice were kept on HFD feeding for 32 weeks and following a five day acclimation period were pretreated with TUDCA (150 mg/kg/day) for five days. At the end of pretreatment period intraperitoneal vehicle and leptin (1 mg/kg/day) treatments were started. (n) Body weight (g), (o) % decrease in bodyweight of the HFD-fed mice during the 16-day treatment. (n=6 for VEH, n=7 for Lep, n=7 for TUD, n=8 for TUD+Lep group). Error bars are ±S.E.M., P values are determined by Student's t-test. (*p<0.05, **p<0.01, ***p<0.001)
(§1) If the postulate that reduction of ER stress in the hypothalamus increases leptin sensitivity is true, chemical chaperones other than PBA should also create the same effect and sensitize the obese mice to leptin. TUDCA is a hydrophilic bile acid, which has a completely different structure than PBA, but has chemical chaperone activity in common^25. First, we investigated whether TUDCA can reduce ER stress in the hypothalamus of the ob/ob mice. For this purpose we treated ob/ob mice either with vehicle or TUDCA (150 mg/kg/day) for a period of 21 days and analyzed the hypothalamic PERK phosphorylation. […] To address this question we first pretreated the ob/ob mice with TUDCA (150 mg/kg/day) for 5 days and subsequently initiated leptin (1 mg/kg) treatment. […] Body weight of the ob/ob mice decreased further with leptin and TUDCA co-treatment and reached to 34.39±1.30 g from 50.55±1.14 g (Lep vs. TUD+Lep, p<0.001). […] Furthermore, to investigate the metabolic homeostasis in more detail, we placed the mice in metabolic cages. […] Heat generation was the same between the groups (FIG. 5j). Next, we analyzed the whole body fat composition by DEXA scan. […] Finally, analysis of lean mass has shown that none of the treatments lead to a significant change in this parameter ([…]). We additionally investigated the effect of TUDCA and leptin co-treatment on C57BL/6 wt-lean mice.
We next tested the efficacy of TUDCA as a leptin sensitizer in the HFD-induced obesity model. In this experiment we used 35 weeks old and C57BL/6 wt mice, which were kept on HFD-feeding for 32 weeks. We divided the mice into two groups for TUDCA and TUDCA-leptin co-treatment. Body weight of the mice in this cohort was between 35-52 g. We specifically chose the mice with the highest bodyweight for TUDCA and leptin co-treatment group to investigate whether leptin will become effective in these severely obese mice when administered along with the TUDCA. The initial body weight of the TUDCA group was 38.33±1.16 (g) and TUDCA+leptin group was 48.46±1.82 (g) (FIG. 5n). […]

The subject of experiment [2] is C57BL/6 wt-lean mice. The experiment can be described thus: TUDCA and leptin co-treatment in C57BL/6 wt-lean mice. The class given is in vivo. The following applies: leptin 1 mg/kg/day, TUDCA 150 mg/kg/day, 30 days. On the procedure:
Following an initial acclimation period, eight week-old wt lean mice were treated with vehicle (VEH), Leptin (1 mg/kg/day) (L), TUDCA (150 mg/kg/day) (TUD) or leptin and TUDCA together for a period of 30 days. (a) Bodyweight (g), (b) % decrease in bodyweight, (c) Daily food intake (g) of the wt mice treated with VEH, LEP, TUD and TUD+LEP during the experimental period (n=4 in each group). Error bars are ±S.E.M., P values are determined by Student's t-test (*p<0.05, **p<0.01, ***p<0.001).
as §1

`C[C@H](CCC(=O)NCCS(=O)(=O)O)[C@H]1CC[C@H]2[C@@H]3[C@@H](O)C[C@@H]4C[C@H](O)CC[C@]4(C)[C@H]3CC[C@]12C` [TUDCA, tauroursodeoxycholic acid]: in experiment [1] (18th day of treatment, TUDCA 150 mg/kg/day, leptin 1 mg/kg/day), the blood glucose levels entry was “lowered”. Also, the body weight entry was “did not decrease” in experiment [1] (TUDCA 150 mg/kg/day alone) and “did not observe any significant changes” in experiment [2]. In addition, the food intake entry in experiment [2] is recorded as “did not observe any significant changes”.
For the compound “leptin: adipocyte-derived hormone that suppresses appetite”, in experiment [1] (before leptin 1 mg/kg, with or without TUDCA 150 mg/kg/day), the initial body weight worked out at 50.50 ± 0.55 g. In experiment [1] (leptin 1 mg/kg/day, 18 days, with or without TUDCA 150 mg/kg/day), the “percent decrease from the initial body weight” value is listed as 9.27±1.34%. The “body weight after treatment” value in experiment [1] (leptin 1 mg/kg/day, 18 days, with or without TUDCA 150 mg/kg/day (5 days pretreatment)) stood at 43.75 ± 0.22 g. In addition, in experiment [2], the body weight entry is “did not observe any significant changes” and the food intake entry is “did not observe any significant changes”.
